Source: PMC5429769, “Rational development of Stafib-2: a selective, nanomolar inhibitor of the transcription factor STAT5b” (Scientific Reports, 2017)
Substitutions are numbered along the chain they refer to.

Legend:
Format in all cases: binding
STAT1 = target: T1, STAT1 (Homo sapiens, UniProt P42224); experiment: Fluorescence polarization assay, STAT1
T1 sequence (P42224 1-750): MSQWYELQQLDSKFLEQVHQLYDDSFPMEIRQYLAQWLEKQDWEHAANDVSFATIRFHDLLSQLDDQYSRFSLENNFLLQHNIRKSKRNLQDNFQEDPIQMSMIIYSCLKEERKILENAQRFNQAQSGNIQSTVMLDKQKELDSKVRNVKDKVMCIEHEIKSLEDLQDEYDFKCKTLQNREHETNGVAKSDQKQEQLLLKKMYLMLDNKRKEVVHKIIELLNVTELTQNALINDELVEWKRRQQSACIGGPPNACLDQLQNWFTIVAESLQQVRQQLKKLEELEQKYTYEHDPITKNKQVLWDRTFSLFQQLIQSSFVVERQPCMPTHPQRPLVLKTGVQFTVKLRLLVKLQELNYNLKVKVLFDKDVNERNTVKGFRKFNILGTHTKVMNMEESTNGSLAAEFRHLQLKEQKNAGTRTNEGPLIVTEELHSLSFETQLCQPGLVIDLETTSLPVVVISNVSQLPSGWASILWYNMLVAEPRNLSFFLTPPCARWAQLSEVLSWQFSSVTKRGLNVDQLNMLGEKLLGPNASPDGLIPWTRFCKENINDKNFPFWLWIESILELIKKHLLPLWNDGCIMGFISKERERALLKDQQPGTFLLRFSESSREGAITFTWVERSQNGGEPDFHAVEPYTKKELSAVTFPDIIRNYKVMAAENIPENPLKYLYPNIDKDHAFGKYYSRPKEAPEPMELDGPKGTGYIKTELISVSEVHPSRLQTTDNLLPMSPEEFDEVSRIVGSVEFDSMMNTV

wild-type STAT5b = target: T2, wild-type STAT5b (Homo sapiens, UniProt P51692); experiment: Isothermal titration calorimetry, wild-type STAT5b; details: ITC, 25 °C, n = 3
T2 sequence (P51692 1-787): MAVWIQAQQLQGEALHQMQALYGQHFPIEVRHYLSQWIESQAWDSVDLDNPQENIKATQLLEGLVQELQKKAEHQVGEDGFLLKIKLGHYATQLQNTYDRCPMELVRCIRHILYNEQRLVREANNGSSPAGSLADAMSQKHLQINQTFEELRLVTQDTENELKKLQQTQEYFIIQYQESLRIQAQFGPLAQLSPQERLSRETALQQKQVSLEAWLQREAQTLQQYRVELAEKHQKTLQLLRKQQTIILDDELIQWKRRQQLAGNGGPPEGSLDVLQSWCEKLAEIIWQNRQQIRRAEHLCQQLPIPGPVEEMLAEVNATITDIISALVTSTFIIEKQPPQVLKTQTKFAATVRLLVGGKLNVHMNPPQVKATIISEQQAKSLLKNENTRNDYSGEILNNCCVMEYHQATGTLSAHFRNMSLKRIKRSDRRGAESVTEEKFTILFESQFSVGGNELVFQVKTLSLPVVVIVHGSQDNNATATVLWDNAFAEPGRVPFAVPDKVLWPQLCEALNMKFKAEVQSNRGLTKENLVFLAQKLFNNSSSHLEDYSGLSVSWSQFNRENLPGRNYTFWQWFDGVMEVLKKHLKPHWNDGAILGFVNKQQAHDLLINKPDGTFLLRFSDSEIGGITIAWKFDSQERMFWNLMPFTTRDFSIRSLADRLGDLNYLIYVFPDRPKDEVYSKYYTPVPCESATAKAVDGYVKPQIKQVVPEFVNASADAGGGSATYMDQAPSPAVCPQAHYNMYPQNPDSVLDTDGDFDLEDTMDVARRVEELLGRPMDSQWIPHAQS

STAT5b Arg618Ala = target: T3, STAT5b Arg618Ala (Homo sapiens, UniProt P51692, R618A); experiment: Isothermal titration calorimetry, STAT5b Arg618Ala; details: ITC, 25 °C
T3 sequence (P51692 1-787 R618A): T2 sequence (P51692 1-787) with R618A

## O=C(COc1ccc(C(=O)Nc2ccc(Oc3ccccc3)cc2)cc1)NCc1ccc(OP(=O)(O)O)c(OP(=O)(O)O)c1 [compound 4, 4-((2-(4-((4-phenoxyphenyl)carbamoyl)phenoxy)acetamido)methyl)-1,2-phenylene bis(dihydrogen phosphate)]
STAT1; converted from IC50 using the published equation
  Ki: 22.8 ± 1 µM
STAT1; fluorescence polarization
  IC50: 46 ± 2 µM
wild-type STAT5b
  ΔH: -4.1 ± 0.5 kcal/mol
  −TΔS: -4.8 ± 0.6 kcal/mol
STAT5b Arg618Ala
  Kd: 5.6 ± 1.7 µM
